Where two headings read alike, the source gives them in different places.
Tests used:
Format in all cases: biochemical
Btk = biological target: T1, Btk (Homo sapiens, UniProt Q06187); test: Btk in vitro inhibitory activity (one of Method A TR-FRET, Method B electrophoretic mobility shift, Method C radiometric filter binding)
T1 construct: purified from insect cells as a full-length construct containing a N-terminal 6X-His tag; His6 (N); made in house; host or cells: insect cells (Method C)
Method in brief: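 Three alternative formats were used. A radiometric filter-binding read used 8 nM full-length His-BTK with 0.2 mg/mL poly(Glu-Tyr) 4:1 (C); microfluidic separation of 1 μM FAM-peptide by 1 nM BTK gave IC50 from 12-point curves (B); TR-FRET at Km ATP, 0.5 nM Btk, gave Ki(app)-derived IC50 (A).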

panel of kinases = biological target: T2, panel of kinases (Homo sapiens, UniProt P51813); test: Inhibition of a panel of kinases (in vitro HotSpot kinase assay, 33P-ATP, 1 μM ATP), other kinases; settings: BMX wild-type, read-out: BMX-WT IC50
T2 sequence (P51813 1-675): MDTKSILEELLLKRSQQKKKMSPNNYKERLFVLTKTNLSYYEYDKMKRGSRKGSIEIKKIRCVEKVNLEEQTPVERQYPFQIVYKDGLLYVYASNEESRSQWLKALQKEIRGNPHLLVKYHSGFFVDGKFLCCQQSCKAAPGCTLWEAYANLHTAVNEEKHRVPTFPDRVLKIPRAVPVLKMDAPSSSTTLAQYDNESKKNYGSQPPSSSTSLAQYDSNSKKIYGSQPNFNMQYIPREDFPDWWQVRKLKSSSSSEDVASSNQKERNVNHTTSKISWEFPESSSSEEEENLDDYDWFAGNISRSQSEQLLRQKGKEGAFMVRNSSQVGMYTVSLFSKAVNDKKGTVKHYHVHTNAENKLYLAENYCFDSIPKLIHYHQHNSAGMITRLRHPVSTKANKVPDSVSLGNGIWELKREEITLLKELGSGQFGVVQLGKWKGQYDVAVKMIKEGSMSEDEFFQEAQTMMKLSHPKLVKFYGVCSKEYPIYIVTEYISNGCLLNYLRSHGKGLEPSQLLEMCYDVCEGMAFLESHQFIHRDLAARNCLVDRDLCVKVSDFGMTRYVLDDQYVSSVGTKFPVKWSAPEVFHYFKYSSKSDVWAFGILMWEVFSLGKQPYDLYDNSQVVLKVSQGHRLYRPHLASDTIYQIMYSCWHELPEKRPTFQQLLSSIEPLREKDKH
Method in brief: (§1)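 Radiometric read-out: 33P transfer to a suitable substrate by each purified enzyme, ATP at 1 μM. Values are degree of inhibition.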

TEC = biological target: T3, TEC (Homo sapiens, UniProt P42680); test: Inhibition of a panel of kinases (in vitro HotSpot kinase assay, 33P-ATP, 1 μM ATP); settings: for IC50: HotSpot kinase assay, 1 μM ATP; for TEC/Btk: ratio of TEC IC50 to Btk IC50 (selectivity)
T3 sequence (P42680 1-631): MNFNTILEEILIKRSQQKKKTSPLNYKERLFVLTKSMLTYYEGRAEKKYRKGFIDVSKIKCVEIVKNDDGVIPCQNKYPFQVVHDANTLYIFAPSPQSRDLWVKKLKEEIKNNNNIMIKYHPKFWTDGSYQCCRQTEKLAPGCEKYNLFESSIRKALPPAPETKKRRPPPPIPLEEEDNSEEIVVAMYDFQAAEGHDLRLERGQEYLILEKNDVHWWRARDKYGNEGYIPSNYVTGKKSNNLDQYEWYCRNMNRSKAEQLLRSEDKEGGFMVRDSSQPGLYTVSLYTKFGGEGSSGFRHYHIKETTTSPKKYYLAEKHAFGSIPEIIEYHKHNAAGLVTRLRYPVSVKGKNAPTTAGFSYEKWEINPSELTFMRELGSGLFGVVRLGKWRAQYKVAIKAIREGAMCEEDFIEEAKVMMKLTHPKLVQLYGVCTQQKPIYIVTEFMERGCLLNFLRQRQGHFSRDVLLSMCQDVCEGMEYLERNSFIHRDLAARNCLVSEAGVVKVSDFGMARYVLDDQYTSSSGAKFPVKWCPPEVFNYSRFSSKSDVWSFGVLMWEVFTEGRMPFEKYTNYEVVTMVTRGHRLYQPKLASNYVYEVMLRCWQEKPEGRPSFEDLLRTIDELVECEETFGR
Method in brief: as §1

[1] = wild-type Btk, read-out: Btk-WT IC50

T1 sequence (Q06187 whole entry): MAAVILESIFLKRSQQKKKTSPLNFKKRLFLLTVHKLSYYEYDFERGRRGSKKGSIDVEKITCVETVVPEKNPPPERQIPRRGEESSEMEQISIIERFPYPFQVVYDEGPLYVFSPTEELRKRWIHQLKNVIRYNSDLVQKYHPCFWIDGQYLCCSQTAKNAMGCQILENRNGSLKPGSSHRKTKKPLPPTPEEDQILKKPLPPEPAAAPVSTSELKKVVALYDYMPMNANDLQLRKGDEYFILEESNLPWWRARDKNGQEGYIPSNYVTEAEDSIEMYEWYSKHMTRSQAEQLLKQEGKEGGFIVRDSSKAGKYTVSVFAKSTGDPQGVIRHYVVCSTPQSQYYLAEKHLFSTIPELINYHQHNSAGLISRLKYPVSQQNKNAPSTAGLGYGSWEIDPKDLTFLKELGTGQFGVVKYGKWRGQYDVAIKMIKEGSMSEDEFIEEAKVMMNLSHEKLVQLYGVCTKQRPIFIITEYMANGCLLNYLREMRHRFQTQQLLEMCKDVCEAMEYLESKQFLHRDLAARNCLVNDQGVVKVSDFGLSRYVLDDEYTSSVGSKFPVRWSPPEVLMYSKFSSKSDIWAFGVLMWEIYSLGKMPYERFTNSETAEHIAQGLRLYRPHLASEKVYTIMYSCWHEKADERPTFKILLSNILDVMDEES

CN(C)C(=O)N1CC[C@H](Nc2n[nH]c3nccc(-c4ccc(CNC(=O)c5noc(C(C)(C)C)n5)c(F)c4)c23)C1 [Example 113, 5-tert-butyl-N-{[4-(3-{[(3S)-1-(dimethylcarbamoyl)pyrrolidin-3-yl]amino}-1H-pyrazolo[3,4-b]pyridin-4-yl)-2-fluorophenyl]methyl}-1,2,4-oxadiazole-3-carboxamide]
IC50 (Btk; [1]): 10.4 nM
IC50 (panel of kinases): 280 nM
IC50 (TEC): 1710 nM
TEC/Btk (TEC): 164

CN(C)C(=O)N1CC[C@H](Nc2n[nH]c3nccc(-c4ccc(CNC(=O)c5ccc(C(C)(C)C)cc5)c(F)c4)c23)C1 [Example 114, (3S)-3-{[4-(4-{[(4-tert-butylphenyl)formamido]methyl}-3-fluorophenyl)-1H-pyrazolo[3,4-b]pyridin-3-yl]amino}-N,N-dimethylpyrrolidine-1-carboxamide]
IC50 (Btk; [1]): 93.3 nM
IC50 (panel of kinases): 2110 nM
IC50 (TEC): 4100 nM
TEC/Btk (TEC): 44

CN(C)C(=O)N1CC[C@@H](Nc2n[nH]c3nccc(-c4ccc(CNC(=O)c5cc(C(C)(C)C)on5)c(F)c4)c23)C1 [Example 115, 5-tert-butyl-N-{[4-(3-{[(3R)-1-(dimethylcarbamoyl)pyrrolidin-3-yl]amino}-1H-pyrazolo[3,4-b]pyridin-4-yl)-2-fluorophenyl]methyl}-1,2-oxazole-3-carboxamide]
IC50 (Btk; [1]): 25.7 nM
IC50 (panel of kinases): 6450 nM
IC50 (TEC): 6320 nM
TEC/Btk (TEC): 246

CN(C)C(=O)N1CCC[C@@H](Nc2n[nH]c3nccc(-c4ccc(CNC(=O)c5noc(C(C)(C)C)n5)c(F)c4)c23)C1 [Example 116, (3R)-3-{[4-(4-{[(5-tert-butyl-1,2,4-oxadiazol-3-yl) formamido]methyl}-3-fluorophenyl)-1H-pyrazolo[3,4-b]pyridin-3-yl]amino}-N,N-dimethylpiperidine-1-carboxamide]
IC50 (Btk; [1]): 11 nM
IC50 (panel of kinases): 3790 nM
IC50 (TEC): 4470 nM
TEC/Btk (TEC): 406

CN(C)C(=O)N1CC[C@@H](Nc2n[nH]c3nccc(-c4ccc(C5(NC(=O)c6nc(C(C)(C)C)no6)CC5)cc4)c23)C1 [Example 117, 3-tert-butyl-N-{1-[4-(3-{[(3R)-1-(dimethylcarbamoyl)pyrrolidin-3-yl]amino}-1H-pyrazolo[3,4-b]pyridin-4-yl)phenyl]cyclopropyl}-1,2,4-oxadiazole-5-carboxamide]
IC50 (Btk; [1]): 46.2 nM
IC50 (panel of kinases): 5960 nM
IC50 (TEC): > 10000 nM
TEC/Btk (TEC): >100

CN(C)C(=O)N1CC[C@@H](Nc2n[nH]c3nccc(-c4ccc(CNC(=O)c5cnn(C(C)(C)C)c5)c(F)c4)c23)C1 [Example 119, 1-tert-butyl-N-{[4-(3-{[(3R)-1-(dimethylcarbamoyl)pyrrolidin-3-yl]amino}-1H-pyrazolo[3,4-b]pyridin-4-yl)-2-fluorophenyl]methyl}-1H-pyrazole-4-carboxamide]
IC50 (Btk; [1]): 49 nM
IC50 (panel of kinases): 6530 nM
IC50 (TEC): 8590 nM
TEC/Btk (TEC): 175

CN(C)C(=O)N1CC[C@@H](Nc2n[nH]c3nccc(-c4ccc(CNC(=O)c5nc(C(C)(C)C)no5)c(F)c4)c23)C1 [Example 120, 3-tert-butyl-N-{[4-(3-{[(3R)-1-(dimethylcarbmoyl)pyrrolidin-3-yl]amino}-1H-pyrazolo[3,4-b]pyridin-4-yl)-2-fluorophenyl]methyl}-1,2,4-oxadiazole-5-carboxamide]
IC50 (Btk; method is one of A, B or C, not stated which, read-out: IC50 values against Btk): < 10 nM
IC50 (Btk; [1]): 7.38 nM
IC50 (panel of kinases): 5220 nM
IC50 (TEC): 7120 nM
TEC/Btk (TEC): 965

CC(C)(C)c1nc(C(=O)NC2(c3ccc(-c4ccnc5[nH]nc(N[C@@H]6CCCNC6)c45)cc3F)CC2)no1 [Example 121, 5-tert-butyl-N-{1-[2-fluoro-4-(3-{[(3R)-piperidin-3-yl]amino}-1H-pyrazolo[3,4-b]pyridin-4-yl)phenyl]cyclopropyl}-1,2,4-oxadiazole-3-carboxamide]
IC50 (Btk; [1]): 210 nM
IC50 (panel of kinases): > 10000 nM
IC50 (TEC): > 10000 nM
TEC/Btk (TEC): >100
